Holding throughout (experiment): cell-based
The target of experiment [1] is hNav1.3 (Homo sapiens, UniProt Q9NY46). The following applies: IonWorks Quattro, use-dependent block, hNav1.3; read-out: IWQ Use Nav1.3. On the technique in general: Patch clamp records ionic current or voltage across a cell membrane.
The target in experiment [2] is hNav1.5 (Homo sapiens, UniProt Q14524). The following applies: IonWorks Quattro, use-dependent block, hNav1.5; read-out: IWQ Use Nav1.5.
Experiment [3] deals with hNav1.7 (Homo sapiens, UniProt Q15858). The experiment is classed as cell-based. The following applies: IonWorks Quattro, use-dependent block, hNav1.7; read-out: IWQ Use Nav1.7.

Structures are written as SMILES. pIC50: −log10 of the molar value.

The text below walks through data of patent US9340590B2 (priority 2011, dated 2016).

Sequence of hNav1.5 (Q14524 whole entry, looked up): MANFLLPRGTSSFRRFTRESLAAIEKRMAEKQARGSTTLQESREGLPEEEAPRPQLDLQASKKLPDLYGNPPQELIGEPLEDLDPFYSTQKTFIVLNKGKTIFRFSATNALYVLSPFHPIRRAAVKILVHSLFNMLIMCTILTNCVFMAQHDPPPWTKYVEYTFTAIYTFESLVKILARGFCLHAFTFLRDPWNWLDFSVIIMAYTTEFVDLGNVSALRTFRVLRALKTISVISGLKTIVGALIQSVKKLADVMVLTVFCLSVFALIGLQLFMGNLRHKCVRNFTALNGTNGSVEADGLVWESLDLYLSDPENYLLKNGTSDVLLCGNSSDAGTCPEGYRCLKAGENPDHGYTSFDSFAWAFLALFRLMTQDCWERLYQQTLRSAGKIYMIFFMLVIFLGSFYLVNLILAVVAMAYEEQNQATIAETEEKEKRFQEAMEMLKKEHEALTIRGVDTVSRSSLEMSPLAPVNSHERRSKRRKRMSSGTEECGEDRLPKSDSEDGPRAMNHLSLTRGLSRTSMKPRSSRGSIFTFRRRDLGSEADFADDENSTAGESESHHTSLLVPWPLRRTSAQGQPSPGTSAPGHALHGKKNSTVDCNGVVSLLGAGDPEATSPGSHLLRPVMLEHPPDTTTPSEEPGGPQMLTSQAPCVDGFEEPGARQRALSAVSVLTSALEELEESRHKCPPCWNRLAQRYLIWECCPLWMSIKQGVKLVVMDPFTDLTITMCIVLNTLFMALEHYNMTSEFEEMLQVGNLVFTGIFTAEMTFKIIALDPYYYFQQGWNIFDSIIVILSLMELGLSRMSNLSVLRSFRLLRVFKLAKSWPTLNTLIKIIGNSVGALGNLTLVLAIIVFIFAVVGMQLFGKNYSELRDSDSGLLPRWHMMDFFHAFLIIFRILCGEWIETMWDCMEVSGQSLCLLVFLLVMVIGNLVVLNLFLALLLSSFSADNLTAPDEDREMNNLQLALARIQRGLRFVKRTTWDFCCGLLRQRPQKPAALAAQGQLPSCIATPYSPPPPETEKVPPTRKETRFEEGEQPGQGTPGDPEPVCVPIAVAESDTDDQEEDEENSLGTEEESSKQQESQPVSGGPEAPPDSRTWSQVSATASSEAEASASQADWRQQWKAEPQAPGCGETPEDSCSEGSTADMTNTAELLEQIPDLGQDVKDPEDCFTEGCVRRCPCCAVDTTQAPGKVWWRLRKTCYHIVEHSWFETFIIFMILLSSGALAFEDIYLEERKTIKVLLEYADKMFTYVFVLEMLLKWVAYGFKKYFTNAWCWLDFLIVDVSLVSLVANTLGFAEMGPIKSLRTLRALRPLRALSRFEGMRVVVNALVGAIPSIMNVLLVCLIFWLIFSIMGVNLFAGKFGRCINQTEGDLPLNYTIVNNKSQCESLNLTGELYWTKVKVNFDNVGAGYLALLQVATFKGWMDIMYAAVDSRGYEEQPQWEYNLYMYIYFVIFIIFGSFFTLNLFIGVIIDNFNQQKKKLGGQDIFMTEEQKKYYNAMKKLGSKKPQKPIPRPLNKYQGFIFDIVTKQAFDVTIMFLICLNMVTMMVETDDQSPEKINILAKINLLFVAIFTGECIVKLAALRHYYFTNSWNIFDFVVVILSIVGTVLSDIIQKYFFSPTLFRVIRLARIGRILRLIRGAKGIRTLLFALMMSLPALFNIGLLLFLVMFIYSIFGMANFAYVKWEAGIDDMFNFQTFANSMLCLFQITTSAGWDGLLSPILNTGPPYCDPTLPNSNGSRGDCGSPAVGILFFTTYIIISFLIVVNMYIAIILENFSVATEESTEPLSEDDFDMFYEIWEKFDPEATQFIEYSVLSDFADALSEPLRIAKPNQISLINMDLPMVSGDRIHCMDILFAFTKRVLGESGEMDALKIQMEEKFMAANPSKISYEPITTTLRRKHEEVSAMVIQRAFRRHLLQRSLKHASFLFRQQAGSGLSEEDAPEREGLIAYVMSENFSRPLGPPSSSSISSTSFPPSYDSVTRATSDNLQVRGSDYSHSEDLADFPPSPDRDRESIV
Sequence of hNav1.7 (Q15858 whole entry, looked up): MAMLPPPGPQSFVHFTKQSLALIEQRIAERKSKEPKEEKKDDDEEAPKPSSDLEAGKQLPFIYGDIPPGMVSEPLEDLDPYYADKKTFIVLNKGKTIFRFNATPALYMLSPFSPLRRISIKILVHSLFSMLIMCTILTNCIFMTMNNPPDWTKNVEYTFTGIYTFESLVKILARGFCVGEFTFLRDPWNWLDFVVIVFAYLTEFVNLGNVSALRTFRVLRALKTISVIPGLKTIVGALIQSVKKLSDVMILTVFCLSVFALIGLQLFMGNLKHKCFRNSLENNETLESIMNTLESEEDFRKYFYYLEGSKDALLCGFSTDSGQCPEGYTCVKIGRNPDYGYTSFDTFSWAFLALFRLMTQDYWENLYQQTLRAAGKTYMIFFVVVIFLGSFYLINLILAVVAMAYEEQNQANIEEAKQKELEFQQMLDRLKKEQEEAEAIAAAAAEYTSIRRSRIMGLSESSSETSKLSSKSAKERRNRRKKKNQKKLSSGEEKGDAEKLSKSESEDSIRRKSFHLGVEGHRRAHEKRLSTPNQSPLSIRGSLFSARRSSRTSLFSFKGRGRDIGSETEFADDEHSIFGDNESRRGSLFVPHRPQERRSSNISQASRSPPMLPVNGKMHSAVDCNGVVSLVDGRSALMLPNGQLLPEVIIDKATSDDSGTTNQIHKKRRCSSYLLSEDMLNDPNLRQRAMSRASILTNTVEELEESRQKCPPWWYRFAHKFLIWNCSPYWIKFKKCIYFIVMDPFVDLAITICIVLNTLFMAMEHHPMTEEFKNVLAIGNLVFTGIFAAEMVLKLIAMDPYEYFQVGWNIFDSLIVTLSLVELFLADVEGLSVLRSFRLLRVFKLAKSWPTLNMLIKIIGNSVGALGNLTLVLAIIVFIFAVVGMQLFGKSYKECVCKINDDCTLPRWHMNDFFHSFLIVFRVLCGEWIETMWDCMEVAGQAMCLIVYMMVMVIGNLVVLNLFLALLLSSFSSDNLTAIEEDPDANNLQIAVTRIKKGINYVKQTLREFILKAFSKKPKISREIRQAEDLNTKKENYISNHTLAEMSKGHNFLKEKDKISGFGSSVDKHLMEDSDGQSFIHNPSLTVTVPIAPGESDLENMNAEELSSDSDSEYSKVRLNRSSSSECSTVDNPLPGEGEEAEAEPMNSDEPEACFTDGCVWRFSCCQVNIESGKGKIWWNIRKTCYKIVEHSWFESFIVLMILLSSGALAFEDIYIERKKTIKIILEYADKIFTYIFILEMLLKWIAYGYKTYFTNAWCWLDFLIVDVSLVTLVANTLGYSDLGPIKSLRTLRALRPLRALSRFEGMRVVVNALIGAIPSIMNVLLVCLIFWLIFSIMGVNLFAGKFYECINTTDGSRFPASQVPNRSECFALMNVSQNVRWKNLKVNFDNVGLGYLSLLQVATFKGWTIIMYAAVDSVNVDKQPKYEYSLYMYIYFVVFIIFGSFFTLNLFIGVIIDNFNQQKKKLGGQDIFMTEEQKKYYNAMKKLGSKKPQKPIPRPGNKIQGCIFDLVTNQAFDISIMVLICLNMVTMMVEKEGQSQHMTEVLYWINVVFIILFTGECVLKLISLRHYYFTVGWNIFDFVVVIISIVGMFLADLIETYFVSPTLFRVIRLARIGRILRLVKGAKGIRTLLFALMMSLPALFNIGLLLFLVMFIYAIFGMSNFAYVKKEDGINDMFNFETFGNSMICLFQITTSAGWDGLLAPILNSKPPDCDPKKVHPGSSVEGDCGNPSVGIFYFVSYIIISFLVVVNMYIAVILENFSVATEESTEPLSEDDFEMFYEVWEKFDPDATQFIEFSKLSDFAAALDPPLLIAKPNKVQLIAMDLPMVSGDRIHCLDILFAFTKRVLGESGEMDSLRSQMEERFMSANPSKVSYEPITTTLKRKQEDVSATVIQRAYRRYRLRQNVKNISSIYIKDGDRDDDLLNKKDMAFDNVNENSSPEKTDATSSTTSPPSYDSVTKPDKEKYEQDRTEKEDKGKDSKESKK

For `CC[C@H](C)[C@@H]1NC(=O)[C@@H]2CSSC[C@@H]3NC(=O)[C@H](C(C)C)NC(=O)[C@H](CC(C)C)NC(=O)[C@H](CC(N)=O)NC(=O)[C@@H]4CCCN4C(=O)[C@H](CCCNC(=N)N)NC(=O)[C@H](CSSC[C@H](NC(=O)[C@@H](N)CC(=O)O)C(=O)N[C@@H](CC(C)C)C(=O)NCC(=O)N[C@@H](C)C(=O)N[C@@H](Cc4ccccc4)C(=O)N[C@@H](CCCNC(=N)N)C(=O)N[C@@H](CCCCN)C(=O)N2)NC(=O)[C@H](CSSC[C@@H](C(=O)N[C@@H](CCCCN)C(=O)N[C@@H](Cc2ccc(O)cc2)C(=O)N[C@H](C(=O)N[C@@H](Cc2ccccc2)C(=O)O)C(C)C)NC(=O)[C@H](Cc2c[nH]c4ccccc24)NC(=O)[C@H](CCCNC(=N)N)NC(=O)[C@H](Cc2c[nH]cn2)NC(=O)[C@H]([C@@H](C)O)NC(=O)[C@H](CCCNC(=N)N)NC(=O)[C@H](CO)NC3=O)NC(=O)[C@H](CCCCN)NC(=O)[C@H](CC(=O)O)NC(=O)CNC(=O)[C@H](CC(=O)O)NC(=O)[C@@H]2CCCN2C1=O` [compound 840], the pIC50 in experiment [1] was 5.82; in experiment [2], less than 5.30; in experiment [3] it was less than 5.30.
As to `CC[C@H](C)[C@@H]1NC(=O)[C@@H]2CSSC[C@@H]3NC(=O)[C@H](C(C)C)NC(=O)[C@H](CC(C)C)NC(=O)[C@H](CC(N)=O)NC(=O)[C@@H]4CCCN4C(=O)[C@H](CCCNC(=N)N)NC(=O)[C@H](CSSC[C@H](NC(=O)[C@@H](N)CC(=O)O)C(=O)N[C@@H](CC(C)C)C(=O)NCC(=O)N[C@@H](C)C(=O)N[C@@H](Cc4ccccc4)C(=O)N[C@@H](CCCNC(=N)N)C(=O)N[C@@H](CCCCN)C(=O)N2)NC(=O)[C@H](CSSC[C@@H](C(=O)N[C@@H](CCCCN)C(=O)N[C@@H](Cc2ccc(O)cc2)C(=O)N[C@H](C(=O)N[C@@H](Cc2ccccc2)C(=O)O)C(C)C)NC(=O)[C@H](Cc2c[nH]c4ccccc24)NC(=O)[C@H](CCCNC(=N)N)NC(=O)[C@H](Cc2c[nH]cn2)NC(=O)[C@H]([C@@H](C)O)NC(=O)[C@H](CCCNC(=N)N)NC(=O)[C@H](CO)NC3=O)NC(=O)[C@H](CCCCN)NC(=O)[C@H](CC(=O)O)NC(=O)[C@H](Cc2c[nH]cn2)NC(=O)[C@H](CC(=O)O)NC(=O)[C@@H]2CCCN2C1=O` [compound 841], the pIC50 in experiment [1], in experiment [2] and in experiment [3] was less than 5.30 each time.
As for `CC[C@H](C)[C@@H]1NC(=O)[C@H](CC(=O)O)NC(=O)[C@@H]2CCCN2C(=O)[C@H]([C@@H](C)CC)NC(=O)[C@@H]2CSSC[C@@H]3NC(=O)[C@H](C(C)C)NC(=O)[C@H](CC(C)C)NC(=O)[C@H](CC(N)=O)NC(=O)[C@@H]4CCCN4C(=O)[C@H](CCCNC(=N)N)NC(=O)[C@H](CSSC[C@H](NC(=O)[C@@H](N)CC(=O)O)C(=O)N[C@@H](CC(C)C)C(=O)NCC(=O)N[C@@H](C)C(=O)N[C@@H](Cc4ccccc4)C(=O)N[C@@H](CCCNC(=N)N)C(=O)N[C@@H](CCCCN)C(=O)N2)NC(=O)[C@H](CSSC[C@@H](C(=O)N[C@@H](CCCCN)C(=O)N[C@@H](Cc2ccc(O)cc2)C(=O)N[C@H](C(=O)N[C@@H](Cc2ccccc2)C(=O)O)C(C)C)NC(=O)[C@H](Cc2c[nH]c4ccccc24)NC(=O)[C@H](CCCNC(=N)N)NC(=O)[C@H](Cc2c[nH]cn2)NC(=O)[C@H]([C@@H](C)O)NC(=O)[C@H](CCCNC(=N)N)NC(=O)[C@H](CO)NC3=O)NC(=O)[C@H](CCCCN)NC(=O)[C@H](CC(=O)O)NC1=O` [compound 842], the pIC50 in experiment [1] is 5.52; in experiment [2] it was less than 5.30; in experiment [3], less than 5.30.
